Among the test systems are DU-145 prostate; HS 578T breast; MCF7 breast; MDA-MB-231 breast; T-47D breast.
Assay in all cases: NCI tumour cell line growth inhibition, 48 h

The results in this text go back to PubChem BioAssay (NCI).

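Tested at 5 concentrations; 48 h exposure; 96-well plates; endpoints linearly interpolated, else capped at highest concentration. Abbreviation: GI50, concentration required for 50% inhibition of growth. TGI marks complete inhibition of growth.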

Take `c1ccc2[nH]c(-c3ccc(Nc4nc(N5CCCCC5)nc(N5CCOCC5)n4)cc3)nc2c1`: the GI50 in the test with DU-145 prostate was 4.28 µM; with HS 578T breast, 2.56 µM; with MCF7 breast, 2.4 µM; in the test on MDA-MB-231 breast, 2.5 µM; in the test with T-47D breast, 1.96 µM. Moreover, the TGI with DU-145 prostate was greater than 100 µM; in the test with HS 578T breast it was 8.61 µM; in the test with MCF7 breast it was 7.9 µM; with MDA-MB-231 breast it was 7.52 µM; in the test on T-47D breast, 4.58 µM.
Take `CC1(C)CC2C(=O)c3ccccc3NC2c2ccccc21` (stereo not given): the TGI in the test on DU-145 prostate was greater than 100 µM; with HS 578T breast, 6.99 µM; with MCF7 breast it was greater than 100 µM; in the test with T-47D breast, greater than 100 µM.
For `Cc1ccc(-c2nc3nc(-c4ccc(F)cc4)nc(N4CCCNCC4)c3o2)cc1`, the GI50 with DU-145 prostate was 1.68 µM; in the test on HS 578T breast, 1.78 µM; with MCF7 breast it was 1.23 µM; in the test on MDA-MB-231 breast, 1.63 µM. The TGI with DU-145 prostate was found to be 3.11 µM; in the test with HS 578T breast, 3.69 µM; in the test with MCF7 breast, 2.96 µM; with MDA-MB-231 breast, 3.11 µM.
For the compound `Cc1ccc(NC(=O)c2cc(S(=O)(=O)N3C(=O)NC(=O)NS3(=O)=O)c(S)cc2Cl)cc1`, the GI50 in the test with DU-145 prostate is 23.2 µM; in the test with HS 578T breast it was 29.4 µM; with MCF7 breast, 28 µM; with MDA-MB-231 breast it was 20.4 µM; in the test on T-47D breast, 21.4 µM. The TGI in the test on DU-145 prostate was 64 µM; in the test on HS 578T breast it was 95.8 µM; with MCF7 breast it was greater than 100 µM; with MDA-MB-231 breast it was 57.9 µM; in the test on T-47D breast, 81.3 µM.
Consider `CC(C)CCC1(CCN)C(=O)NC(=O)NC1=O`, for which the TGI in the test with DU-145 prostate, in the test on HS 578T breast, with MCF7 breast, with MDA-MB-231 breast and with T-47D breast was greater than 100 µM each time.
With `CN1/C(=C\C=C\C2=[N+](C)c3ccccc3C2(C)C)C(C)(C)c2ccccc21`, the GI50 in the test with DU-145 prostate is 0.105 µM; in the test with HS 578T breast, 0.216 µM; in the test on MCF7 breast, 0.127 µM; in the test with MDA-MB-231 breast it was 0.248 µM; with T-47D breast, 0.0179 µM. For the same compound, the TGI amounted to 12.1 µM in the test with DU-145 prostate; 4.45 µM in the test with HS 578T breast; 1.18 µM in the test with MCF7 breast; 1.58 µM with MDA-MB-231 breast; 1.27 µM with T-47D breast.
With `Cn1cc(C2=C(c3cn(C4CCN(Cc5ccccn5)CC4)c4ccccc34)C(=O)NC2=O)c2ccccc21`, the GI50 in the test on DU-145 prostate is greater than 100 µM; in the test with HS 578T breast it was 3.75 µM; in the test on MCF7 breast, 3.23 µM; in the test with MDA-MB-231 breast it was greater than 100 µM; in the test on T-47D breast it was 5.45 µM. Besides, the TGI with DU-145 prostate was greater than 100 µM; in the test with HS 578T breast, greater than 72.1 µM; in the test on MCF7 breast it was greater than 100 µM; in the test on MDA-MB-231 breast, greater than 100 µM; with T-47D breast, greater than 100 µM.
As for `N#CNC(N)=Nc1ccc(Cl)cc1`, the TGI with DU-145 prostate, in the test with HS 578T breast, in the test with MCF7 breast, in the test on MDA-MB-231 breast and with T-47D breast was greater than 100 µM throughout.
Consider `CCCCn1c(-c2ccc(C(=O)O/N=C(\N)c3ccc4c(c3)OCO4)cc2)nc(-c2ccccc2)c1-c1ccccc1`, for which the GI50 was 1.65 µM in the test on DU-145 prostate; 1.88 µM with HS 578T breast; 2.38 µM in the test with MCF7 breast; 2.99 µM in the test on MDA-MB-231 breast; 1.85 µM with T-47D breast. Further, the TGI is 3.21 µM with DU-145 prostate; 5.09 µM in the test on HS 578T breast; 8.83 µM with MCF7 breast; greater than 100 µM in the test with MDA-MB-231 breast; 4.95 µM with T-47D breast.
For `C[C@H]1CCCC(O)C(O)[C@@H]2C[C@H](O[Si](C)(C)C(C)(C)C)C[C@H]2[C@H](O[Si](C)(C)C(C)(C)C)C(O)C(O)C(=O)O1` (stereo not given in full), the GI50 was 28.3 µM in the test with DU-145 prostate, 50.2 µM with MCF7 breast, 14.2 µM in the test on MDA-MB-231 breast and 28.4 µM in the test on T-47D breast. In addition, the TGI with DU-145 prostate is greater than 100 µM; in the test on MCF7 breast it was greater than 100 µM; in the test with MDA-MB-231 breast, 38.5 µM; in the test on T-47D breast, greater than 100 µM.
On to `CCOC(=O)/C(C#N)=C\C=C(/Cl)c1ccc(Cl)cc1`, for which the GI50 in the test with DU-145 prostate is 12.9 µM; with HS 578T breast it was 22.7 µM; in the test on MCF7 breast, 25.6 µM; with MDA-MB-231 breast, 22.1 µM; in the test on T-47D breast it was 2.83 µM. The TGI is 25.5 µM with DU-145 prostate; 60.7 µM in the test on HS 578T breast; greater than 78.7 µM with MCF7 breast; 45.9 µM in the test on MDA-MB-231 breast; 10.7 µM in the test with T-47D breast.
On to `O=C1OCC2=C1C(c1ccccc1)c1cc3c(cc1N2CCO)OCO3` (stereo not given), for which the GI50 with DU-145 prostate was 10.6 µM; with HS 578T breast, 2.72 µM; in the test on MCF7 breast, 1.76 µM; in the test on MDA-MB-231 breast, 24.8 µM; in the test on T-47D breast, 3.12 µM. Moreover, the TGI in the test on DU-145 prostate is greater than 50 µM; with HS 578T breast, 33.7 µM; with MCF7 breast, greater than 50 µM; in the test with MDA-MB-231 breast, greater than 50 µM; in the test on T-47D breast, greater than 50 µM.
Take `C=C1C(=O)O[C@H]2[C@H]1CC/C(C=Nc1c(N)cc(C(F)(F)F)cc1Br)=C\CC[C@@]1(C)O[C@@H]21`: the GI50 was 1.48 µM with DU-145 prostate; 2.08 µM in the test on HS 578T breast; 0.982 µM with MCF7 breast; 1.33 µM in the test with MDA-MB-231 breast; 1.45 µM in the test with T-47D breast. The TGI worked out at 2.95 µM in the test on DU-145 prostate; 9.5 µM with HS 578T breast; 4.48 µM in the test with MCF7 breast; 3.15 µM in the test on MDA-MB-231 breast; 3.42 µM in the test with T-47D breast.
As for `C(=N\Nc1nnn(Cc2ccccc2)n1)/c1ccccc1`, the GI50 in the test with DU-145 prostate was 6.73 µM; in the test with HS 578T breast, 13.7 µM; in the test on MCF7 breast, 2.41 µM; in the test with MDA-MB-231 breast it was 7.54 µM; in the test on T-47D breast, 4.04 µM. Further, the TGI with DU-145 prostate is greater than 100 µM; with HS 578T breast, greater than 89.6 µM; in the test on MCF7 breast, greater than 64.2 µM; in the test with MDA-MB-231 breast, greater than 79.6 µM; in the test with T-47D breast, greater than 100 µM.
